Experimental data taken from ChEMBL document CHEMBL1240372, “Murine model of a disseminated infection by the novel fungus Fonsecaea monophora and successful treatment with posaconazole” (Antimicrob Agents Chemother, 2010).
Converted amounts (≈) assume the structure as drawn. The source made the active and inactive calls. The calls are words filed in the database; no cut-off is given here.

What was measured:
Fonsecaea monophora [1] = test: Antifungal activity against 2 x 10^5 CFU Fonsecaea monophora CBS 117236 infected in […] OF1 mouse assessed as reduction in fungal load in kidney at 1.5 mg/kg, ip qd administered 1 day after infection for 7 days; format: functional, organism-based; set-up: dose 1.5 mg/kg
Fonsecaea monophora [2] = test: Antifungal activity against 1 x 10^6 CFU Fonsecaea monophora CBS 269.37 infected in OF1 mouse assessed as increase in mouse survival at 1.5 mg/kg, ip qd administered 1 day after infection for 7 days; format: functional, organism-based; set-up: dose 1.5 mg/kg
Fonsecaea monophora [3] = test: Antifungal activity against Fonsecaea monophora CBS 117236; format: functional
Fonsecaea monophora [4] = test: Antifungal activity against 2 x 10^5 CFU Fonsecaea monophora CBS 117236 infected in […] OF1 mouse assessed as reduction in fungal load in lung at 1.5 mg/kg, ip qd administered 1 day after infection for 7 days; format: functional, organism-based; set-up: dose 1.5 mg/kg
Fonsecaea monophora [5] = test: Antifungal activity against 1 x 10^6 CFU Fonsecaea monophora CBS 269.37 infected in […] OF1 mouse assessed as reduction in fungal load in kidney at 1.5 mg/kg, ip qd administered 1 day after infection for 7 days; format: functional, organism-based; set-up: dose 1.5 mg/kg
Fonsecaea monophora [6] = test: Antifungal activity against 2 x 10^5 CFU Fonsecaea monophora CBS 117236 infected in […] OF1 mouse assessed as reduction in fungal load in spleen at 1.5 mg/kg, ip qd administered 1 day after infection for 7 days; format: functional, organism-based; set-up: dose 1.5 mg/kg
Fonsecaea monophora [7] = test: Antifungal activity against 1 x 10^6 CFU Fonsecaea monophora CBS 269.37 infected in […] OF1 mouse assessed as reduction in fungal load in spleen at 1.5 mg/kg, ip qd administered 1 day after infection for 7 days; format: functional, organism-based; set-up: dose 1.5 mg/kg
Fonsecaea monophora [8] = test: Antifungal activity against 1 x 10^6 CFU Fonsecaea monophora CBS 269.37 infected in […] OF1 mouse assessed as reduction in fungal load in lung at 1.5 mg/kg, ip qd administered 1 day after infection for 7 days; format: functional, organism-based; set-up: dose 1.5 mg/kg
Fonsecaea monophora [9] = test: Antifungal activity against Fonsecaea monophora CBS 269.37; format: functional
[10] = Drug level in 1 x 10^6 CFU Fonsecaea monophora CBS 269.37 infected OF1 mouse serum at 1.5 mg/kg, ip qd administered 1 day after infection measured on day 6 after 4 hrs of last treatment; format: ADME, organism-based; set-up: dose 1.5 mg/kg, route intraperitoneal; conditions: read-out: Drug uptake
Fonsecaea monophora [11] = test: Antifungal activity against 2 x 10^5 CFU Fonsecaea monophora CBS 117236 infected in OF1 mouse assessed as increase in mouse survival at 25 mg/kg, po bid administered 1 day after infection for 7 days; format: functional, organism-based; set-up: dose 25 mg/kg
Fonsecaea monophora [12] = test: Antifungal activity against 1 x 10^6 CFU Fonsecaea monophora CBS 269.37 infected in po dosed OF1 mouse assessed as reduction in fungal load in lung at 25 mg/kg, po bid administered 1 day after infection for 7 days; format: functional, organism-based; set-up: dose 25 mg/kg
[13] = Drug level in 1 x 10^6 CFU Fonsecaea monophora CBS 269.37 infected OF1 mouse serum at 50 mg/kg, po bid administered 1 day after infection measured on day 6 after 4 hrs of last treatment; format: ADME, organism-based; set-up: dose 50 mg/kg, route oral; conditions: read-out: Drug uptake
Fonsecaea monophora [14] = test: Antifungal activity against 2 x 10^5 CFU Fonsecaea monophora CBS 117236 infected in po dosed OF1 mouse assessed as reduction in fungal load in spleen at 25 mg/kg, po bid administered 1 day after infection for 7 days; format: functional, organism-based; set-up: dose 25 mg/kg
[15] = Drug level in 1 x 10^6 CFU Fonsecaea monophora CBS 269.37 infected OF1 mouse brain at 50 mg/kg, po bid administered 1 day after infection measured on day 6 after 4 hrs of last treatment; format: ADME, organism-based; set-up: dose 50 mg/kg, route oral; conditions: read-out: Drug uptake
Fonsecaea monophora [16] = test: Antifungal activity against 1 x 10^6 CFU Fonsecaea monophora CBS 269.37 infected in OF1 mouse assessed as increase in mouse survival at 25 mg/kg, po bid administered 1 day after infection for 7 days; format: functional, organism-based; set-up: dose 25 mg/kg
Fonsecaea monophora [17] = test: Antifungal activity against 2 x 10^5 CFU Fonsecaea monophora CBS 117236 infected in po dosed OF1 mouse assessed as reduction in fungal load in lung at 25 mg/kg, po bid administered 1 day after infection for 7 days; format: functional, organism-based; set-up: dose 25 mg/kg
Fonsecaea monophora [18] = test: Antifungal activity against 2 x 10^5 CFU Fonsecaea monophora CBS 117236 infected in po dosed OF1 mouse assessed as reduction in fungal load in kidney at 25 mg/kg, po bid administered 1 day after infection for 7 days; format: functional, organism-based; set-up: dose 25 mg/kg
Fonsecaea monophora [19] = test: Antifungal activity against 1 x 10^6 CFU Fonsecaea monophora CBS 269.37 infected in po dosed OF1 mouse assessed as reduction in fungal load in spleen at 25 mg/kg, po bid administered 1 day after infection for 7 days; format: functional, organism-based; set-up: dose 25 mg/kg
Fonsecaea monophora [20] = test: Antifungal activity against 1 x 10^6 CFU Fonsecaea monophora CBS 269.37 infected in po dosed OF1 mouse assessed as reduction in fungal load in kidney at 25 mg/kg, po bid administered 1 day after infection for 7 days; format: functional, organism-based; set-up: dose 25 mg/kg
Fonsecaea monophora [21] = test: Antifungal activity against 2 x 10^5 CFU Fonsecaea monophora CBS 117236 infected in po dosed OF1 mouse assessed as reduction in fungal load in brain compound administered qd 1 day after infection for 7 days; format: functional, organism-based
Fonsecaea monophora [22] = test: Antifungal activity against 1 x 10^6 CFU Fonsecaea monophora CBS 269.37 infected in po dosed OF1 mouse assessed as reduction in fungal load in spleen compound administered qd 1 day after infection for 7 days; format: functional, organism-based
Fonsecaea monophora [23] = test: Antifungal activity against 1 x 10^6 CFU Fonsecaea monophora CBS 269.37 infected in po dosed OF1 mouse assessed as reduction in fungal load in lung compound administered qd 1 day after infection for 7 days; format: functional, organism-based
[24] = Drug level in 1 x 10^6 CFU Fonsecaea monophora CBS 269.37 infected OF1 mouse brain at 40 mg/kg, po qd administered 1 day after infection measured on day 6 after 4 hrs of last treatment; format: ADME, organism-based; set-up: dose 40 mg/kg, route oral; conditions: read-out: Drug uptake
Fonsecaea monophora [25] = test: Antifungal activity against 1 x 10^6 CFU Fonsecaea monophora CBS 269.37 infected in po dosed OF1 mouse assessed as reduction in fungal load in brain compound administered qd 1 day after infection for 7 days; format: functional, organism-based
[26] = Drug level in 1 x 10^6 CFU Fonsecaea monophora CBS 269.37 infected OF1 mouse serum at 20 mg/kg, po qd administered 1 day after infection measured on day 6 after 4 hrs of last treatment; format: ADME, organism-based; set-up: dose 20 mg/kg, route oral; conditions: read-out: Drug uptake
Fonsecaea monophora [27] = test: Antifungal activity against 1 x 10^6 CFU Fonsecaea monophora CBS 269.37 infected in po dosed OF1 mouse assessed as reduction in fungal load in kidney compound administered qd 1 day after infection for 7 days; format: functional, organism-based
[28] = Drug level in 1 x 10^6 CFU Fonsecaea monophora CBS 269.37 infected OF1 mouse brain at 10 mg/kg, po qd administered 1 day after infection measured on day 6 after 4 hrs of last treatment; format: ADME, organism-based; set-up: dose 10 mg/kg, route oral; conditions: read-out: Drug uptake
Fonsecaea monophora [29] = test: Antifungal activity against 1 x 10^6 CFU Fonsecaea monophora CBS 269.37 infected in OF1 mouse assessed as increase in mouse survival at 40 mg/kg, po qd administered 1 day after infection for 7 days; format: functional, organism-based; set-up: dose 40 mg/kg
Fonsecaea monophora [30] = test: Antifungal activity against 2 x 10^5 CFU Fonsecaea monophora CBS 117236 infected in OF1 mouse assessed as increase in mouse survival at 40 mg/kg, po qd administered 1 day after infection for 7 days; format: functional, organism-based; set-up: dose 40 mg/kg
Fonsecaea monophora [31] = test: Antifungal activity against 2 x 10^5 CFU Fonsecaea monophora CBS 117236 infected in OF1 mouse assessed as increase in mouse body weight at 20 mg/kg, po qd administered 1 day after infection for 7 days; format: functional, organism-based; set-up: dose 20 mg/kg
Fonsecaea monophora [32] = test: Antifungal activity against 2 x 10^5 CFU Fonsecaea monophora CBS 117236 infected in po dosed OF1 mouse assessed as reduction in fungal load in kidney compound administered qd 1 day after infection for 7 days; format: functional, organism-based
Fonsecaea monophora [33] = test: Antifungal activity against 2 x 10^5 CFU Fonsecaea monophora CBS 117236 infected in po dosed OF1 mouse assessed as reduction in fungal load in lung compound administered qd 1 day after infection for 7 days; format: functional, organism-based
Fonsecaea monophora [34] = test: Antifungal activity against 2 x 10^5 CFU Fonsecaea monophora CBS 117236 infected in OF1 mouse assessed as increase in mouse survival at 10 mg/kg, po qd administered 1 day after infection for 7 days; format: functional, organism-based; set-up: dose 10 mg/kg
[35] = Drug level in 1 x 10^6 CFU Fonsecaea monophora CBS 269.37 infected OF1 mouse serum at 40 mg/kg, po qd administered 1 day after infection measured on day 6 after 4 hrs of last treatment; format: ADME, organism-based; set-up: dose 40 mg/kg, route oral; conditions: read-out: Drug uptake
[36] = Drug level in 1 x 10^6 CFU Fonsecaea monophora CBS 269.37 infected OF1 mouse serum at 10 mg/kg, po qd administered 1 day after infection measured on day 6 after 4 hrs of last treatment; format: ADME, organism-based; set-up: dose 10 mg/kg, route oral; conditions: read-out: Drug uptake
Fonsecaea monophora [37] = test: Antifungal activity against 2 x 10^5 CFU Fonsecaea monophora CBS 117236 infected in po dosed OF1 mouse assessed as reduction in fungal load in spleen compound administered qd 1 day after infection for 7 days; format: functional, organism-based
Fonsecaea monophora [38] = test: Antifungal activity against 2 x 10^5 CFU Fonsecaea monophora CBS 117236 infected in OF1 mouse assessed as increase in mouse survival at 20 mg/kg, po qd administered 1 day after infection for 7 days; format: functional, organism-based; set-up: dose 20 mg/kg
[39] = Drug level in 1 x 10^6 CFU Fonsecaea monophora CBS 269.37 infected OF1 mouse brain at 20 mg/kg, po qd administered 1 day after infection measured on day 6 after 4 hrs of last treatment; format: ADME, organism-based; set-up: dose 20 mg/kg, route oral; conditions: read-out: Drug uptake
Fonsecaea monophora [40] = test: Antifungal activity against 2 x 10^5 CFU Fonsecaea monophora CBS 117236 infected in OF1 mouse assessed as increase in mouse body weight at 10 mg/kg, po qd administered 1 day after infection for 7 days; format: functional, organism-based; set-up: dose 10 mg/kg
Fonsecaea monophora [41] = test: Antifungal activity against 1 x 10^6 CFU Fonsecaea monophora CBS 269.37 infected in OF1 mouse assessed as increase in mouse survival at 20 mg/kg, po qd administered 1 day after infection for 7 days; format: functional, organism-based; set-up: dose 20 mg/kg

## C[C@@H]1[C@H](O)[C@@H](C)/C=C/C=C/C=C/C=C/C=C/C=C/C=C/[C@H](O[C@@H]2O[C@H](C)[C@@H](O)[C@H](N)[C@@H]2O)C[C@@H]2O[C@](O)(C[C@@H](O)C[C@@H](O)[C@H](O)CC[C@@H](O)C[C@@H](O)CC(=O)O[C@H]1C)C[C@H](O)[C@H]2C(=O)O [AMPHOTERICIN B]
Fonsecaea monophora [1]
  Activity: Active
Fonsecaea monophora [2]
  Activity: Active
Fonsecaea monophora [3]
  MIC: 1 µg/mL (≈ 1.08 µM)
Fonsecaea monophora [4]
  Activity: Active
Fonsecaea monophora [5]
  Activity: Active
Fonsecaea monophora [6]
  Activity: Active
Fonsecaea monophora [7]
  Activity: Active
Fonsecaea monophora [8]
  Activity: Active
Fonsecaea monophora [9]
  MIC: 1 µg/mL (≈ 1.08 µM)
[10]
  concentration at 4 h: 6450 ng/mL

## CCC(C)n1ncn(-c2ccc(N3CCN(c4ccc(OCC5COC(Cn6cncn6)(c6ccc(Cl)cc6Cl)O5)cc4)CC3)cc2)c1=O (stereo not given) [ITRACONAZOLE]
Fonsecaea monophora [11]
  Activity: inactive
Fonsecaea monophora [12]
  Activity: Active
[13]
  concentration at 4 h: 7320 ng/mL
Fonsecaea monophora [3]
  MIC: 0.25 µg/mL (≈ 0.354 µM)
Fonsecaea monophora [14]
  Activity: Active
[15]
  concentration at 4 h: 6880 ng/g
Fonsecaea monophora [16]
  Activity: inactive
Fonsecaea monophora [17]
  Activity: Active
Fonsecaea monophora [18]
  Activity: Active
Fonsecaea monophora [9]
  MIC: 0.5 µg/mL (≈ 0.709 µM)
Fonsecaea monophora [19]
  Activity: Active
Fonsecaea monophora [20]
  Activity: Active

## CC[C@@H]([C@H](C)O)n1ncn(-c2ccc(N3CCN(c4ccc(OC[C@@H]5CO[C@@](Cn6cncn6)(c6ccc(F)cc6F)C5)cc4)CC3)cc2)c1=O [POSACONAZOLE]
Fonsecaea monophora [21]
  Activity: Dose-dependent effect
Fonsecaea monophora [22]
  Activity: Dose-dependent effect
Fonsecaea monophora [23]
  Activity: Dose-dependent effect
[24]
  concentration at 4 h: 6730 ng/g
Fonsecaea monophora [3]
  MIC: 0.12 µg/mL (≈ 0.171 µM)
Fonsecaea monophora [25]
  Activity: Dose-dependent effect
[26]
  concentration at 4 h: 6350 ng/mL
Fonsecaea monophora [27]
  Activity: Dose-dependent effect
[28]
  concentration at 4 h: 2020 ng/g
Fonsecaea monophora [29]
  Activity: Active
Fonsecaea monophora [30]
  Activity: Active
Fonsecaea monophora [31]
  Activity: Active
Fonsecaea monophora [32]
  Activity: Dose-dependent effect
Fonsecaea monophora [33]
  Activity: Dose-dependent effect
Fonsecaea monophora [34]
  Activity: Active
[35]
  concentration at 4 h: 9720 ng/mL
[36]
  concentration at 4 h: 5170 ng/mL
Fonsecaea monophora [37]
  Activity: Dose-dependent effect
Fonsecaea monophora [9]
  MIC: 0.25 µg/mL (≈ 0.357 µM)
Fonsecaea monophora [38]
  Activity: Active
[39]
  concentration at 4 h: 2840 ng/g
Fonsecaea monophora [40]
  Activity: Active
Fonsecaea monophora [41]
  Activity: Active
